Laboratory results as given in US12692273B2, “p53 modulators and uses thereof” (The Regents of the University of California, priority 2019, dated 2026).
Where “and” joins values, the source holds several entries; their conditions need not be identical. Equal entries are not always repeated. Entries after “also recorded” stand apart in the source; their conditions may differ.

What was measured:
p53 Y220C [1] = target: T1, p53 Y220C (Homo sapiens, UniProt P04637, C124S/C182S/C229S/C275S/C277S/M133L/N239Y/N268D/Y220C); assay: Thermal stability assay (differential scanning fluorimetry) of p53 Y220C covalent adducts; assay type: binding; conditions: for Tm: p53 Y220C-compound adduct, p53 Y220C alone 33.0, p53 WT 41.5; for Δ Tm (thermal shift, stabilization of Y220C): relative to p53 Y220C alone
T1 construct: Human p53 WT, R273C, and Y220C (residues 94-312,; 6xHIS (TEV-cleavable) (cleaved yes); made in house; host or cells: E. coli BL21(DE3)
Description: We synthesized a series of compounds, covalently labelled recombinant p53 (Y220C) with the compound, and performed differential scanning fluorimetry (DSF) assay to determine Tm relative to Y220C alone. We tested our lead compounds with the largest increase in Tm in homozygous p53 (Y220C) cell lines BxPC-3 and HCC1419 to determined how the covalent molecules alter p53 target gene expression. p53 WT MCF10A and p53 null Calu-1 cells were used as controls. The cell panel was treated with concentrations of compound ranging 100 nM-10 μM for 4 hr, 24 hr, and 48 hr. DMSO was used as a negative control, KG2 as a positive control, and Nutlin-3a as a positive control for p53 WT (FIG. 3D). We determined the differences in p53 target gene activation by performing qPCR on CDKN1A, MDM2, PUMA, BAX, NOXA, and used GAPDH as a negative control. We also performed a western blot on p53, p21, MDM2, and actin as a control to monitor the expected increase in protein levels of p21 and MDM2 protein. […] We immunoprecipitated p53 Y220C from the compound treated cell panel with Pab240 or IgG control, and western blot for p53 to determine the relative rescue of the native fold compared to DMSO treated cells.
(§1) Recombinant protein expression. Human p53 WT, R273C, and Y220C (residues 94-312, (C124S, M133L, C182S, C229S, N239Y, N268D, C275S, C277S) were expressed as 6×HIS fusion proteins in E. coli BL21(DE3). Lysates were first purified by Ni Sepharose High Performance (GE Healthcare) affinity chromatography. Proteins were then eluted from the resin and subject to Heparin (GE Healthcare) affinity chromatography. The elution fraction was then subjected to TEV protease cleavage overnight in 50 mM HEPES, 200 mM NaCl, and 1 mM DTT (pH 7.0). The protein was then passed over Heparin affinity resin again to remove free 6×HIS and TEV protease, concentrated, and stored in a buffer containing 50 mM HEPES, 200 mM NaCl, and 20% glycerol (pH 7.0).
Thermal Stability Assays. The thermal denaturation of p53 was monitored using fluorescence-based differential scanning fluorimetry assay. Purified p53 was incubated with excess covalent ligand overnight at 4° C. and purified by gel-filtration into 50 mM HEPES, 100 mM NaCl, and 15% glycerol (pH 7.0). 5 μM protein was prepared in assay buffer 50 mM HEPES and 100 mM NaCl (pH 7.0) with 2×SYPRO Orange (ThermoFisher). The plate was heated from 15° C. to 65° C. at a rate of 0.5° C./min. The fluorescence intensity was monitored at Ex/Em: 492/610 nm.

BxPC-3 (Y220C) cells = assay: Western blot of p21 and p53 in BxPC-3 (Y220C) cells; assay type: cell-based, human
Text: (§2) This is exciting preliminary evidence of successful re-animation of p53 (Y220C) with our lead compound KG2.
We have successfully synthesized several PEG linked versions of JQ1-KG1 bivalent molecules. We also treated BxPC-3 cells with free KG1 and JQ1 compounds as additional controls. We have performed western blots on p53, p21 and actin as a control (FIG. 4C).
(§3) Western blots and antibodies. Whole-cell extracts from MCF10A (Gift from Prof. Sourav Bandyopadhyay, UCSF), BxPC-3 (ATCC, CRL-1687), Calu-1 (ATCC, HTB-54) were prepared by lysing cells with lysis buffer containing 50 mM HEPES, 150 mM NaCl, 1 mM DTT, 10% glycerol, and 1% NP-40 (pH 7.0) in the presence of 1×cOmplete EDTA-free protease inhibitor cocktail (Roche). Whole-cell extracts were combined with 2×SDS-loading buffer for western blot analysis.
(§4) Western blots were performed with 10 μg protein and were resolved by SDS-PAGE on 4-12% BT gels (Invitrogen) at 150 V for 1 hr in MES buffer and transferred to nitrocellulose membranes, which were then incubated with primary antibodies at 4° C. overnight, followed by incubation with LI-COR IRDye anti-mouse and anti-rabbit secondary antibodies at room temperature for 1 hr. Bands were imaged on a LI-COR Odyssey scanner.
(§5) Antibodies for western blot detection were as follows: p53 (DO-1, SCBT), actin (8H10D10, CST), Rb phosS807/811 (85165, CST), and p21 (SX118, SCBT).

Calu-1 (null) cells = assay: Western blot of p21 in Calu-1 (p53 null) cells; assay type: cell-based, human; conditions: Calu-1, p53 null setting
Description: as §2, §3, §4, §5

p53 Y220C [2] = target: T1, p53 Y220C; assay: LC-MS analysis of p53 Y220C covalent labeling; assay type: binding; conditions: for label and reactivate p53 Y220C: recombinant protein and patient derived cell-lines; for covalent labeling of p53 (Y220C): recombinant protein, Cys-220
Description: as §1
LC-MS analysis of p53 Y220C covalent labeling. Recombinant p53 Y220C (1 μM) in buffer containing 50 mM HEPES and 150 mM NaCl (pH 7.0) was treated with covalent compounds. The extent of covalent labeling was assessed by LC-MS (Waters Xevo G2-XS QTof, ACQUITY UPLC Protein BEH C4 Column, 300 Å, 1.7 μm, 2.1 mm×50 mm). Deconvolution of multiply charged ions was performed using Waters MassLynx software (version 4.1).

SMILES | p21 induction (Western blot) (BxPC-3 (Y220C) cells; BxPC-3 (p53 Y220C) cells) | label and reactivate p53 Y220C (p53 Y220C [2]) | covalent labeling of p53 (Y220C) (p53 Y220C [2]) | Tm (p53 Y220C [1]; DSF) | Δ Tm (thermal shift, stabilization of Y220C) (p53 Y220C [1]) [°C] | other results
C=C(CC)C(N)=O [2-Ethylacrylamide] | – | – | – | – | – | stabilization of Y220C (in words) (p53 Y220C [1]; DSF, in the assay tested): did not stabilize
C=CC(=O)n1c2ccccc2c2cc(C(=O)NCCOCCOCCOCCOCCNC(=O)C[C@@H]3N=C(c4ccc(Cl)cc4)c4c(sc(C)c4C)-n4c(C)nnc43)ccc21 [JQ1PEG4KG1] | strongly induce p21 | – | – | – | – | target p53 (Y220C) engagement (higher MW shift of p53 band) (BxPC-3 (Y220C) cells; BxPC-3 cells, Western blot): evidence of target p53 (Y220C) engagement; cell death (lower actin staining) (BxPC-3 (Y220C) cells; BxPC-3 cells, higher concentrations, 24 hours): extensive cell death
C#CCNC(=O)c1cn(C(=O)C=C)c2ccccc12 [KG2] | activation of p21 expression in Y220C cells to the same level as nutlin in WT p53 cells | label and reactivate | labels p53 (Y220C) | – | – | active concentration for p21 activation (BxPC-3 (Y220C) cells; BxPC-3 (p53 Y220C) cells): active at μM concentrations; p21 induction (Western blot) (Calu-1 (null) cells): does not show induction of p21
Cc1sc2c(c1C)C(c1ccc(Cl)cc1)=N[C@@H](CC(=O)OC(C)(C)C)c1nnc(C)n1-2 [JQ1, (S)-tert-butyl 2-(4-(4-chlorophenyl)-2,3,9-trimethyl-6H-thieno[3,2-f][1,2,4]triazolo[4,3-a][1,4]diazepin-6-yl)acetate, reference compound] | modest activation of p21 | – | – | – | – | –
C=CC(=O)n1cc(C=O)c2ccccc21 [KG37] | – | – | – | 34.5 °C | 1.5 | –
C=CC(=O)n1c2ccccc2c2cc(C=O)ccc21 [KG1] | little or no effects | label and reactivate | reacts with p53 (Y220C); also recorded: covalently labels | 35 °C and 34.5 °C | 1.5 | –
